Values of other authors, collected in patent publication US20050153276A1 (priority 2001, published 2005).

System: human hepatocyte and neuroblastoma cells
Conditions: cited from earlier work

| SMILES | effect on cell metabolism (acidification rate) |
| --- | --- |
| CCOP(=O)(OCC)Oc1ccc([N+](=O)[O-])cc1 [paraoxon] | opposite effects on hepatocyte and neuroblastoma cell metabolism |
| CCOP(=S)(OCC)Oc1ccc([N+](=O)[O-])cc1 [parathion] | opposite effects on hepatocyte and neuroblastoma cell metabolism |
